Conditions in all cases: incubation time: 72 h
Assay [1] has as its system DU-4475. The assay is described as follows: normalised viability (% of control), CellTiter-Blue; higher = more viable cells (about 100 = DMSO control). How it is done:
(§1)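 DSRT, CellTiter-Blue viability, 72 h incubation. Signal is normalised to DMSO and benzethonium chloride controls. Value is the normalised response at dose 7.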
Background: Resazurin is reduced to fluorescent resorufin, in cell work by metabolically active cells.

In assay [2] the test system is CAL-148. The description is as above. How it is done: as §1
In assay [3] the test system is CAL-51. The description is as above. The protocol:
as §1

The test system of assay [4] is MDA-MB-453. The assay is described as above. How it is done:
as §1

The test system of assay [5] is HDQ-P1. Described as above. The protocol: as §1
Assay [6] has as its system CAL-85-1. Described as above. The protocol:
as §1

In assay [7] the test system is BT-549. Put plainly: normalised response (% of control), CellTox Green; higher = less cell death (100 = DMSO, 0 = benzethonium chloride kill control). The procedure, abridged:
(§2)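 After 72 h with compound in 384-well plates, breast cancer cell lines seeded as 20 µl suspension were read for CellTox Green fluorescence at 485/520 nm. CellTiter-Glo luminescence was then read after 10 min at room temperature. Compound was present at 5 concentrations in 10-fold steps over a 10,000-fold range set per compound, and plates were normalised to 0.1 % DMSO (100) and a positive kill control (0). Values are normalised signals, each at a single concentration.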

Assay [8] relates to MDA-MB-436. The description is as above. The procedure, abridged:
as §2

In assay [9] the test system is MFM-223. Described as above. The procedure, abridged:
as §2

Assay [10] deals with MDA-MB-231. Described as above. The procedure, abridged:
as §2

In assay [11] the test system is DU-4475. The description is as above. In outline:
as §2

The test system of assay [12] is Hs578T. The description is as above. In outline: as §2
The test system of assay [13] is MDA-MB-468. The description is as above. The procedure, abridged:
as §2

The subject of assay [14] is CAL-148. Described as above. In outline:
as §2

Assay [15] concerns MCF-10A. The description is as above. The procedure, abridged: as §2
The subject of assay [16] is HCC1143. Described as above. In outline:
as §2

The subject of assay [17] is CAL-51. The description is as above. In outline:
as §2

Assay [18] relates to MDA-MB-453. The description is as above. In outline: as §2
Assay [19] concerns HCC1937. The description is as above. The procedure, abridged:
as §2

Assay [20] has as its system HDQ-P1. Described as above. In outline: as §2
For assay [21], the system named is CAL-120. The description is as above. The procedure, abridged: as §2
The subject of assay [22] is CAL-85-1. Described as above. The procedure, abridged: as §2
For assay [23], the system named is BT-474. The description is as above. The procedure, abridged: as §2
In assay [24] the test system is HCC1599. Described as above. The procedure, abridged:
as §2

Consider `CC(C)(C)c1cnc(CSc2cnc(NC(=O)C3CCNCC3)s2)o1` [SNS-032] (1000 nM), for which the normalised viability in assay [1] amounted to 2.63%; in assay [2], 18.8%; in [3], 31.5%; in assay [4] it was 11.2%; in assay [5], 12.6%; in assay [6], 2.84%. For the same compound, the normalised response in [7] was 80.4%; in assay [8], 102%; in assay [9], 63.5%; in assay [10], -97.4%; in assay [11], 86.1%; in assay [12], 25%. Further, the normalised response was 84% in assay [13]; 96.3% in assay [14]; 24% in assay [15]; 86.3% in [16]; 55.9% in assay [17]; 99.2% in assay [18]. Moreover, the normalised response in [19] turned out to be 115%; in assay [20], 62.6%; in [21], 88.6%; in [22], 17.1%; in [23] it was 90%; in [24], 71.2%.
With `Cc1sc2c(c1C)C(c1ccc(Cl)cc1)=N[C@@H](CC(=O)OC(C)(C)C)c1nnc(C)n1-2` [(+)JQ1] (1000 nM), the normalised viability in [1] was 12.4%; in assay [2] it was 56.5%; in assay [3] it was 84.1%; in assay [4], 21.9%; in assay [5], 106%; in assay [6] it was 56.7%. Also, the normalised response came to 97.4% in assay [7]; 66.8% in assay [8]; 98.1% in assay [9]; 131% in assay [10]; 88.2% in assay [11]; 98.9% in assay [12]. The normalised response is 85.6% in assay [13]; 67.3% in [14]; 108% in assay [15]; -3.05% in assay [16]; 90.6% in [17]; 104% in [18]. For the same compound, the normalised response worked out at 59.3% in assay [19]; 83.5% in assay [20]; 87.5% in assay [21]; 64.5% in assay [22]; 94.4% in [23]; 95.5% in [24].
As for `Cn1cnc2c(F)c(Nc3ccc(Br)cc3Cl)c(C(=O)NOCCO)cc21` [Selumetinib] (1000 nM), the normalised viability in [1] came out at 1.82%; in assay [2], 92.8%; in assay [3], 91.3%; in assay [4], 104%; in assay [5], 75.2%; in [6], 64.8%. Besides, the normalised response in assay [7] amounted to 116%; in assay [8], 80.4%; in [9] it was 93.2%; in assay [10], 43.8%; in assay [11] it was 60.8%; in assay [12], 100%. For the same compound, the normalised response in assay [13] is 108%; in [14], 99.2%; in assay [15], 90.4%; in [16], 70.1%; in assay [17], 103%; in assay [18], 104%. Further, the normalised response in assay [19] is 88.9%; in assay [20] it was 77.2%; in assay [21] it was 81.4%; in assay [22] it was 77.5%; in assay [23], 96.9%; in assay [24], 89.4%.
